Assay [1] relates to lung cancer cells AS2. As to the kind of experiment: Corresponding cell analysis after Taxol (cell death, proliferation inhibition/cells kill). The format is cell-based. From the text: The moving speed of the cell can be obtained by analyzing the moving distance perpendicular to the electrode at different time points. […]. […] The treatment response includes proliferation inhibition/cells kill which are the important indicators for determining whether the chemotherapy is effective on clinical. Therefore, the conclusion of the treatment response of cells to the treatment method can be obtained fast by using electrorotation, and the treatment effect of the clinical treatment can be estimated with high reliability, so that the analysis period indeed can be substantially shorten (24 hrs v.s. 48 hrs).

Assay [2] has as its system lung cancer cells AS2. Description: Traveling-wave dielectrophoresis moving speed of cells after Taxol. The format is cell-based. The settings on record: 24 hours after treatment. The text has this:
The principle of the traveling-wave dielectrophoresis is similar with the electrorotation. The test cells can be pushed away by the electrodes when applying a negative electrophoresis force (nDEP) through two set of parallel electrode 13 and 14, so that the influence on the moving condition resulting from the friction between the test cells and chip surface can be reduced. The two set of parallel electrode 13 and 14 individually include several electrodes having a width ranged from 0.1 to 1000 microns, preferably 0.5 to 100 microns, for example 1 micron, 20 microns, 40 microns, 50 microns, or 60 microns; the width of the intervals ranged from 0.1 to 1000 microns, preferably 0.5 to 100 microns, for example 1 micron, 20 microns, 40 microns, 50 microns, or 60 microns. Moreover, in this uneven electric field, the electric signal has a periodic variation in value and direction (such as a sine wave), for example, 360/N of sine wave signal are subsequently applied to the parallel electrodes, wherein N is preferably equal to 4, so that the sine wave of the electrodes have intervals of 90 degrees from each other, but N is not limited thereto. The wave signal of each electrode continuously changes the phase thereof by time to provide the source of the moving force for traveling-wave electrophoresis. […]

`CC(=O)O[C@H]1C(=O)[C@@]2(C)[C@H]([C@H](OC(=O)c3ccccc3)[C@]3(O)C[C@H](OC(=O)[C@H](O)[C@@H](NC(=O)c4ccccc4)c4ccccc4)C(C)=C1C3(C)C)[C@]1(OC(C)=O)CO[C@@H]1C[C@@H]2O` [Taxol]: the proliferation inhibition/cells kill entry in the assay with lung cancer cells AS2 [1] (24 hours) is listed as “obvious”. Also, in the assay on lung cancer cells AS2 [1] (48 hours), the cell death entry is reported as “obvious” and the proliferation inhibition/cells kill entry is on record as “obvious”. Further, the “moving speed versus placebo (only DMSO)” value in the assay on lung cancer cells AS2 [2] was “much slower”.

The values are drawn from patent US20170087562A1, “METHOD FOR DETERMINING TREATMENT RESPONSE OF CELLS” (NATIONAL CHENG KUNG UNIVERSITY, priority 2015, published 2017).
